Measured values as given in patent publication US8975400B2, “2,3-dihydroimidazo[1, 2-c] pyrimidin-5(1 H)-one compounds use as LP-PLA2 inhibitors” (Glaxo Group Limited, priority 2011, dated 2015).
Where a name gives a salt, the structure may show the parent alone. One block for each compound: values may come before it.

Key:
[1] = biological target: T1, Lp-PLA2 in human plasma (Homo sapiens, UniProt Q13093); assay: Lp-PLA2 human plasma assay (Thio-PAF assay); type: biochemical; details: pooled human plasma, 2-thio-PAF substrate; read-out: pIC50 in the thio-PAF assay (converted)
T1 construct: This assay may detect the activity of Lp-PLA2 in human plasma; from tissue; host or cells: pooled human plasma
T1 sequence (Q13093 22-441): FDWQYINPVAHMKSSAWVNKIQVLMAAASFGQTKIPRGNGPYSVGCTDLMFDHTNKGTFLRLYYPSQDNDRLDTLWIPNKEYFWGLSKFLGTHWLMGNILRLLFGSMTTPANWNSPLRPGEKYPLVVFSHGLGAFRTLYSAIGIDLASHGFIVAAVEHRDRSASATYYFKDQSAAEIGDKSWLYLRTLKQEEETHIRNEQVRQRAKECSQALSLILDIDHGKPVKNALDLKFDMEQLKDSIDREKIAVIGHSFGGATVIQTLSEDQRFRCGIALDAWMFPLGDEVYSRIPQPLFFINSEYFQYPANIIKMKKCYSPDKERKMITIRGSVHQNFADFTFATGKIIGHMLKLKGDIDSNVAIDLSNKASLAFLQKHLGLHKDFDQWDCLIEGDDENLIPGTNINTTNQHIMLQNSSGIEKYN
Method in brief: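 Pooled human plasma preincubated 30 min with serially diluted compounds, then 2-thio-PAF substrate with CPM and NEM added in 50 mM HEPES pH 7.4, 150 mM NaCl, 1 mM CHAPS. TFA-quenched after 2 min, 40 min at RT, fluorescence ex 380/em 485; pIC50 from curve fit.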

[2] = biological target: T2, recombinant human Lp-PLA2 (Homo sapiens, UniProt Q13093); assay: Recombinant human Lp-PLA2 assay (rhLp-PLA2, PED6 assay); type: biochemical; details: recombinant human Lp-PLA2, PED6 substrate; upper limit for pIC50 in this assay is 9.3
T2 sequence (Q13093 22-441): T1 sequence (Q13093 22-441)
Method in brief: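 Compound preincubated 30 min with rhLp-PLA2 (4 nM or 110 pM) in 50 mM HEPES pH 7.4, 150 mM NaCl, 1 mM CHAPS, then PED6 substrate (4 μM or 5 μM) added. After 20 min at room temperature protected from light, fluorescence read at ex 480/em 540. pIC50 derived from serial-dilution curves.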

IC50 [1]: ≤ 100 nM | IC50 [2]: 0.631 nM
Structure (SMILES): CN1CCn2c1cc(OCc1ccc(Oc3ccc(C#N)c(C(F)(F)F)c3)c(F)c1)nc2=O [Example E83, 4-(2-fluoro-4-(((1-methyl-5-oxo-1,2,3,5-tetrahydroimidazo[1,2-c]pyrimidin-7-yl)oxy)methyl)phenoxy)-2-(trifluoromethyl)benzonitrile, trifluoroacetic acid salt]

IC50 [1]: ≤ 1000 nM | IC50 [2]: ≤ 10 nM
Structure (SMILES): CN1CCn2c1cc(OCc1ccc(Oc3ccc(Cl)c(F)c3)cc1)nc2=O [Example E25, 7-((4-(4-chloro-3-fluorophenoxy)benzyl)oxy)-1-methyl-2,3-dihydroimidazo[1,2-c]pyrimidin-5(1H)-one]

IC50 [1]: ≤ 100 nM | IC50 [2]: ≤ 10 nM
Structure (SMILES): CN1CCn2c1cc(OCc1ccc(Oc3ccc(F)c(C#N)c3)c(C#N)c1)nc2=O [Example E52, 5-(2-cyano-4-(((1-methyl-5-oxo-1,2,3,5-tetrahydroimidazo[1,2-c]pyrimidin-7-yl)oxy)methyl)phenoxy)-2-fluorobenzonitrile]

IC50 [1]: ≤ 1000 nM | IC50 [2]: ≤ 10 nM
Structure (SMILES): CN1CCn2c1cc(OCc1ccc(Oc3cccc(C#N)c3)c(C#N)c1)nc2=O [Example E62, 2-(3-cyanophenoxy)-5-(((l-methyl-5-oxo-1,2,3,5-tetrahydroimidazo[1,2-c]pyrimidin-7-yl)oxy)methyl)benzonitrile, trifluoroacetic acid salt]

IC50 [1]: ≤ 1000 nM | IC50 [2]: ≤ 10 nM
Structure (SMILES): CN1CCn2c1cc(OCc1ccc(Oc3cnc(F)c(F)c3)c(C#N)c1)nc2=O [Example E73, 2-((5,6-difluoropyridin-3-yl)oxy)-5-(((1-methyl-5-oxo-1,2,3,5-tetrahydroimidazo[1,2-c]pyrimidin-7-yl)oxy)methyl)benzonitrile]

IC50 [1]: ≤ 100 nM | IC50 [2]: ≤ 10 nM
Structure (SMILES): CN1CCn2c1cc(OCc1ccc(Oc3cccc(C(F)(F)F)c3)c(C#N)c1)nc2=O [Example E1, 5-(((1-methyl-5-oxo-1,2,3,5-tetrahydroimidazo[1,2-c]pyrimidin-7-yl)oxy)methyl)-2-(3-(trifluoromethyl)phenoxy)benzonitrile]

More lines, now with the values behind:

Structure (SMILES): CN1CCn2c1cc(OCc1ccc(Oc3ccnc(C#N)c3)c(F)c1)nc2=O [Example 129, 4-(2-fluoro-4-(((1-methyl-5-oxo-1,2,3,5-tetrahydroimidazo[1,2-c]pyrimidin-7-yl)oxy)methyl)phenoxy)picolinonitrile, trifluoroacetic acid salt]
IC50 [1]: ≤ 1000 nM | IC50 [2]: ≤ 10 nM

Structure (SMILES): CN1CCn2c1cc(OCc1ccc(Oc3ccc(C#N)c(Cl)c3)c(C#N)c1)nc2=O [Example 122, 2-chloro-4-(2-cyano-4-(((1-methyl-5-oxo-1,2,3,5-tetrahydroimidazo[1,2-c]pyrimidin-7-yl)oxy)methyl)phenoxy)benzonitrile]
IC50 [1]: ≤ 100 nM | IC50 [2]: ≤ 10 nM

Structure (SMILES): CN1CCn2c1cc(OCc1ccc(Oc3ccnc(Cl)c3)c(C#N)c1)nc2=O [Example 107, 2-((2-chloropyridin-4-yl)oxy)-5-(((1-methyl-5-oxo-1,2,3,5-tetrahydroimidazo[1,2-c]pyrimidin-7-yl)oxy)methyl)benzonitrile]
IC50 [1]: ≤ 1000 nM | IC50 [2]: ≤ 10 nM

Structure (SMILES): N#Cc1cc(COc2cc3n(c(=O)n2)CCN3)ccc1Oc1cncc(C(F)(F)F)c1 [Example 124, 5-(((5-oxo-1,2,3,5-tetrahydroimidazo[1,2-c]pyrimidin-7-yl)oxy)methyl)-2-((5-(trifluoromethyl)pyridin-3-yl)oxy)benzonitrile, trifluoroacetic acid salt]
IC50 [1]: ≤ 100 nM | IC50 [2]: ≤ 10 nM

Structure (SMILES): N#Cc1cc(COc2cc3n(c(=O)n2)CCN3)ccc1Oc1ccc(C#N)c(C(F)(F)F)c1 [Example 88, 4-(2-cyano-4-(((5-oxo-1,2,3,5-tetrahydroimidazo[1,2-c]pyrimidin-7-yl)oxy)methyl)p-henolxy)-2-(trifluoromethyl)benzonitrile]
IC50 [1]: ≤ 100 nM | IC50 [2]: 2 nM

Structure (SMILES): CN1CCn2c1cc(OCc1cc(F)c(Oc3cccc(C#N)c3)c(F)c1)nc2=O [Example 104, 3-(2,6-difluoro-4-(((1-methyl-5-oxo-1,2,3,5-tetrahydroimidazo[1,2-c]pyrimidin-7-yl)oxy)methyl)phenoxy)benzonitrile]
IC50 [1]: ≤ 1000 nM | IC50 [2]: ≤ 10 nM
